Data published in ChEMBL document CHEMBL1201862, “PubChem BioAssay data set” (2004).
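A five-concentration, 48-hour dose response in 96-well plates underlies each endpoint, interpolated linearly between surrounding concentrations. GI50 = concentration required for 50% inhibition of growth.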 Activity calls are given as the source filed them. Cut-off read from the data, not from the text of the source: active = GI50 up to about 1.1 µM and inactive = higher.

What was measured:
Assay in all cases: growth of human tumour cells (NCI), 48 h
CCRF-CEM = system: CCRF-CEM
NCI/ADR-RES = system: NCI/ADR-RES
SR = system: SR
SN12C = system: SN12C
M14 = system: M14
HT-29 = system: HT-29
786-0 = system: 786-0
IGROV-1 = system: IGROV-1
Hs-578T = system: Hs-578T
SK-OV-3 = system: SK-OV-3
EKVX = system: EKVX
T47D = system: T47D
SW-620 = system: SW-620
NCI-H522 = system: NCI-H522
SNB-75 = system: SNB-75
HCT-15 = system: HCT-15
CAKI-1 = system: CAKI-1
A498 = system: A498
SF-539 = system: SF-539
NCI-H226 = system: NCI-H226

SMILES | GI50 (CCRF-CEM) | GI50 (NCI/ADR-RES) | GI50 (SR) | GI50 (SN12C) | GI50 (M14) | GI50 (HT-29) | GI50 (786-0) | GI50 (IGROV-1) | GI50 (Hs-578T) | GI50 (SK-OV-3) | GI50 (EKVX) | GI50 (T47D) | GI50 (SW-620) | GI50 (NCI-H522) | GI50 (SNB-75) | GI50 (HCT-15) | GI50 (CAKI-1) | GI50 (A498) | GI50 (SF-539) | GI50 (NCI-H226)
COc1ccc(C)cc1N1C(=O)C2ON(Cc3ccc(CC(N)=O)cc3)C(c3c4ccccc4c(Cl)c4ccccc34)C2C1=O (stereo unspecified) | 21.5 µM (inactive) | 26.1 µM (inactive) | 12.8 µM (inactive) | 20.2 µM (inactive) | 19.3 µM (inactive) | 20.3 µM (inactive) | 21.4 µM (inactive) | 33.2 µM (inactive) | 41.9 µM (inactive) | 31.8 µM (inactive) | 28.2 µM (inactive) | 27.4 µM (inactive) | 28.4 µM (inactive) | 32.1 µM (inactive) | 12.4 µM (inactive) | 22.4 µM | 25.8 µM (inactive) |  |  | 
COC(=O)C1=C(C(=O)OC)C2(/N=C(\Nc3ccccc3)c3ccccc3)N(c3ccc(OC)cc3)CC(c3ccccc3)N2O1 (stereo unspecified) | > 100 µM (inactive) | > 100 µM (inactive) | > 100 µM (inactive) | > 100 µM (inactive) | > 100 µM (inactive) | > 100 µM (inactive) | > 100 µM (inactive) | > 100 µM (inactive) | > 100 µM (inactive) | > 100 µM (inactive) | > 100 µM (inactive) | > 100 µM (inactive) | > 100 µM (inactive) | > 100 µM (inactive) | 32.3 µM (inactive) | > 100 µM | > 100 µM (inactive) | > 100 µM (inactive) | > 100 µM (inactive) | 
Cc1ccc(-c2nc(N/N=C/c3ccc(O)cc3)c3ccccc3n2)cc1 | 15.8 µM (inactive) | 20.4 µM (inactive) | 39.4 µM (inactive) | 8.2 µM (inactive) | 5.02 µM (inactive) | 27.7 µM (inactive) | 22.8 µM (inactive) | 8.47 µM (inactive) | 35.7 µM (inactive) | 20.3 µM (inactive) | 3.98 µM (inactive) | 5.22 µM (inactive) | 19 µM (inactive) | 14.2 µM (inactive) | 16.8 µM (inactive) | 16.4 µM | 10.8 µM (inactive) |  | 27.3 µM (inactive) | 21.5 µM (inactive)
O=S(=O)(O)c1ccc2c(/N=N/c3ccccc3Cl)c(O)ccc2c1 | > 100 µM (inactive) | > 100 µM (inactive) | > 100 µM (inactive) | > 100 µM (inactive) | > 100 µM (inactive) | > 100 µM (inactive) | > 100 µM (inactive) | > 100 µM (inactive) | > 100 µM (inactive) | > 100 µM (inactive) | > 100 µM (inactive) | > 100 µM (inactive) | > 100 µM (inactive) | > 100 µM (inactive) | > 100 µM (inactive) | > 100 µM | > 100 µM (inactive) | > 100 µM (inactive) |  | 
O=C(Nc1ccccc1)c1cc(S(=O)(=O)NC2=Nc3ccc(Cl)cc3C(c3ccccc3)N2)c(SSc2cc(Cl)c(C(=O)Nc3ccccc3)cc2S(=O)(=O)NC2=Nc3ccc(Cl)cc3C(c3ccccc3)N2)cc1Cl (stereo unspecified) |  | > 100 µM (inactive) | 13.6 µM (inactive) | > 100 µM (inactive) | > 57.4 µM (inactive) | > 100 µM (inactive) | > 100 µM (inactive) | > 100 µM (inactive) | > 100 µM (inactive) | > 100 µM (inactive) | > 100 µM (inactive) | > 100 µM (inactive) | > 100 µM (inactive) | > 100 µM (inactive) | > 100 µM (inactive) | > 100 µM | > 100 µM (inactive) |  | > 100 µM (inactive) | > 100 µM (inactive)
CC(C)(C)c1ccc(O)c(CN(Cc2c(O)ccc3ccccc23)C2CCCCC2)c1 | 13.9 µM (inactive) | 16.3 µM (inactive) | 16 µM (inactive) | 17.3 µM (inactive) | 12.6 µM (inactive) | 16 µM (inactive) | 15.5 µM (inactive) | 15.7 µM (inactive) | 27.4 µM (inactive) | 24.9 µM (inactive) | 15.8 µM (inactive) | 17.9 µM (inactive) | 24.4 µM (inactive) | 14.8 µM (inactive) | 16 µM (inactive) | 16.4 µM | 15.2 µM (inactive) | 19.5 µM (inactive) | 16.4 µM (inactive) | 
CCOC(=O)C(NC(=O)OC(C)(C)C)C(=O)OCC | > 100 µM (inactive) | > 100 µM (inactive) | > 100 µM (inactive) | > 100 µM (inactive) |  | > 100 µM (inactive) | > 100 µM (inactive) | > 100 µM (inactive) | > 100 µM (inactive) | > 100 µM (inactive) | > 100 µM (inactive) | > 100 µM (inactive) | > 100 µM (inactive) | > 100 µM (inactive) | > 100 µM (inactive) | > 100 µM | > 100 µM (inactive) |  |  | 
COc1ccc(C2c3cc4c(cc3OC(N3CCOCC3)C2C)OCO4)c(OC)c1OC (stereo unspecified) | 13 µM (inactive) | 12.1 µM (inactive) | 9.06 µM (inactive) | 26.3 µM (inactive) | 8.22 µM (inactive) | 14 µM (inactive) | 17.1 µM (inactive) | 15.1 µM (inactive) | 2.88 µM (inactive) |  | 24.2 µM (inactive) | 20.6 µM (inactive) | 11.1 µM (inactive) | 6.89 µM (inactive) |  | 6.93 µM | 2.51 µM (inactive) |  | 12.6 µM (inactive) | 
Cc1ccc(S(=O)(=O)NN=C2C(C)(C)CC2(C)C)cc1 | 68.7 µM (inactive) | > 100 µM (inactive) |  | > 100 µM (inactive) | > 100 µM (inactive) | > 100 µM (inactive) | > 100 µM (inactive) | > 100 µM (inactive) | > 100 µM (inactive) | > 100 µM (inactive) | > 100 µM (inactive) | > 100 µM (inactive) | > 100 µM (inactive) | > 100 µM (inactive) | 17.3 µM (inactive) | > 100 µM | > 100 µM (inactive) | > 100 µM (inactive) | > 100 µM (inactive) | > 100 µM (inactive)
CC1=C(C)CC2C(=O)N(c3cc(C(C)(C)C)ccc3C(C)(C)C)C(=O)C2C1 (stereo unspecified) | > 100 µM (inactive) | > 100 µM (inactive) | > 100 µM (inactive) | > 100 µM (inactive) | 52.1 µM (inactive) | > 100 µM (inactive) | 64.9 µM (inactive) | 61 µM (inactive) | 5.82 µM (inactive) | 58.3 µM (inactive) | > 100 µM (inactive) | > 100 µM (inactive) | > 100 µM (inactive) | 8.2 µM (inactive) | 22.3 µM (inactive) | > 100 µM | > 100 µM (inactive) |  | 78.3 µM (inactive) | > 100 µM (inactive)
CCOC(=O)Nn1c(CC#N)nnc1Cc1ccccc1 |  | > 100 µM (inactive) | > 100 µM (inactive) | > 100 µM (inactive) | > 100 µM (inactive) | > 100 µM (inactive) | > 100 µM (inactive) | > 100 µM (inactive) | > 100 µM (inactive) |  |  | 84.9 µM (inactive) | > 100 µM (inactive) | > 100 µM (inactive) | > 100 µM (inactive) | > 100 µM | > 100 µM (inactive) |  | > 100 µM (inactive) | > 100 µM (inactive)
